Assay [1] deals with hKIF18A (1-374) (Homo sapiens (Human), UniProt Q8NI77). Put plainly: Inhibition of KIF18A microtubule-dependent ATPase activity (ADP-Glo). Format: biochemical. Particulars: 4 nM hKIF18A (1-374). Summed up: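 Reaction was started with pre-formed microtubules and ATP (0.2 mg/mL and 2.0 mM in the added mix) and run 60 min at 28 °C. ADP was read by ADP-Glo luminescence, and IC50 came from a four-parameter fit of % inhibition.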
For orientation: ADP-Glo turns the ADP formed in a reaction into a luminescent signal.

The test system of assay [2] is HCC15 cells. As to the kind of experiment: Cell viability of KIF18a-sensitive cell lines, HCC15 (Cell Titre-Glo, 7 days). Format: cell-based. Particulars: read-out: HCC15 IC50. On the procedure:
(§1) Cell lines were seeded as follows 24 hours before compound treatment: HCC15 (Korean Cell Line Bank) 600 cell/well, 95 μL of RPMI-1640 media supplemented with 100 units/mL penicillin, 100 units/mL streptomycin and 10% FBS; NIH:OVCAR-3 (ATCC), 1000 cell/well, 95 μL of RPMI-1640 media supplemented with 100 units/mL penicillin, 100 units/mL streptomycin, 0.01 mg/mL bovine insulin, and 20% FBS; JIMT-1 (Addexbio) 1000 cell/well, 95 μL of DMEM media supplemented with 100 units/mL penicillin, 100 units/mL streptomycin, and 10% FBS.
(§2) Test compounds were added to cells in a 20× dilution scheme by adding 5 μL of serially diluted compound to the plate, and the treated cells were incubated for an additional 7 days in a 37° C., 5% CO2 incubator. DMSO was used as the negative control (0% effect), and wells omitting cells were used as the positive control (100% effect). The cells were incubated for seven days, and cell viability determined via the Promega Cell Titre-Glo® Assay kit. Luminescence units were converted to ATP concentrations via an ATP standard curve (10 point, 2-fold dilution from 5 uM). % Inhibition was calculated for each well as: ([max−min]−[test−min])/[max−min]. IC50 values were calculated from concentration vs. % Inhibition data via a four-parameter variable slope model.

Assay [3] relates to JIMT-1 cells. As to the kind of experiment: Cell viability of KIF18a-sensitive cell lines, JIMT-1 (Cell Titre-Glo, 7 days). The class given is cell-based. The conditions noted are these: read-out: JIMT-1 IC50. The method, then: as §1, §2
Assay [4] deals with NIH:OVCAR-3 cells. As to the kind of experiment: Cell viability of KIF18a-sensitive cell lines, NIH:OVCAR-3 (Cell Titre-Glo, 7 days). Format: cell-based. Particulars: read-out: NIH:OVCAR3 IC50. On the procedure:
as §1, §2

Assay [5] deals with KIF18a-microtubule complex (Homo sapiens (Human), UniProt Q8NI77). As to the kind of experiment: Binding kinetics to KIF18a-microtubule complex (global progress curve analysis). The conditions noted are these: for kon (on-rate from binding kinetics assay) / koff: KIF18A 0.25 nM, up to 24 hr; for koff: read-out: koff (off-rate from binding kinetics assay) (converted); for pKi: koff/kon, read-out: KI (determined from binding kinetic assay koff/kon). The method, then: Compound binding kinetics parameters (kon and koff) were determined by the method of global progress curve analysis (GPCA). […] ADP product levels were determined by the Promega® ADP-Glo assay.
Chain of KIF18a-microtubule complex (Q8NI77 1-374, one chain of several): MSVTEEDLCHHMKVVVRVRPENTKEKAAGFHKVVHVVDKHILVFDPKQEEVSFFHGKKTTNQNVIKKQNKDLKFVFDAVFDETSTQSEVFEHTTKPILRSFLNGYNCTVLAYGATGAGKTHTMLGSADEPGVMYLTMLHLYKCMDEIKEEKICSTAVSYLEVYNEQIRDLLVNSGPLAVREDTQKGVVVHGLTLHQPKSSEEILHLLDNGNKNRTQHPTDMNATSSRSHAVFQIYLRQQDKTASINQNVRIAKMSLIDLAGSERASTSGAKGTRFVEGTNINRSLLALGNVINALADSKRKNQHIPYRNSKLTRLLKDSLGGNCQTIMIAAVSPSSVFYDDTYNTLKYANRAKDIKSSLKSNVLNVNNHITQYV

[6] abbreviates: Homo sapiens, 168 h, JIMT-1, 7 days.
Setting [7] is: Homo sapiens, OVCAR-3, 168 h, NIH:OVCAR3, 7 days.

pIC50, pKi: −log10 of the molar value. Where two headings read alike, the source gives them in different places.

Broadly, the pIC50 is the IC50 on a negative log10 scale, so that one unit is a factor of ten. A word on the koff: it is the first-order rate constant of dissociation.

Chain of hKIF18A (1-374) (Q8NI77 1-374): as the sequence (Q8NI77 1-374, one chain of several) above

On to `O=S(=O)(CCO)Nc1ccc(-n2cc(-c3cccc(C(O)C4CCCC4)n3)nn2)c(N2CCC3(CC2)CC3)c1` (single isomer, unassigned) [Compound 90a], for which the pIC50 was 8.28 in assay [1]; 8.13 in assay [2] (HCC15, 7 days); 7.96 in assay [3] (JIMT-1, 7 days); 7.85 in assay [4] (NIH:OVCAR3, 7 days).
For `O=S(=O)(CCO)Nc1ccc(-n2cc(-c3cccc(C(O)C4CCCC4)n3)nn2)c(N2CCC3(CC2)CC3)c1` (single isomer, unassigned) [Compound 90b] the same measures were 8.25, 7.89, 7.70 and 7.68.
With `Cc1cc(NC(=O)c2ccc(NS(=O)(=O)CCO)cc2N2CCC3(CC2)CC3)nc(N2CCC(F)(F)CC2)n1` [AMG650, 2-(6-azaspiro[2.5]octan-6-yl)-N-[2-(4,4-difluoropiperidin-1-yl)-6-methylpyrimidin-4-yl]-4-(2-hydroxyethanesulfonamido)benzamide, reference compound], the pIC50 was 7.18 in assay [2] (HCC15, 168 h); 6.89 in assay [3] (Homo sapiens, JIMT-1, 168 h); 7.00 in assay [4] (Homo sapiens, OVCAR-3, 168 h).
With `CS(=O)(=O)Nc1ccc(-c2nnc(-c3cccc(N4CCOCC4)n3)[nH]2)c(N2CCC3(CC2)CC3)c1` [Compound 2, N-(4-(5-(6-morpholinopyridin-2-yl)-4H-1,2,4-triazol-3-yl)-3-(6-azaspiro[2.5]octan-6-yl)phenyl)methanesulfonamide], the pIC50 in assay [1] is 7.85. In addition, in assay [5], the “kon (on-rate from binding kinetics assay)” value (from here on “kon”) stood at 0.014 nM⁻¹ h⁻¹, the koff is 3.61e-05 s⁻¹, the pKi was 8.05 and the “disc. t1/2 (dissociation half-life ln(2)/koff)” value came out at 5.5 h. Further, the negative-log IC50 (pIC50) in assay [2] (168 h, HCC15, 7 days) was 6.89. Moreover, the pIC50 in assay [3] (setting [6]) is 6.32.
Regarding `CS(=O)(=O)Nc1ccc(-c2nnc(-c3cccc(N4CCC(F)(F)CC4)n3)[nH]2)c(N2CCC3(CC2)CC3)c1` [Compound 5, N-(4-(5-(6-(4,4-difluoropiperidin-1-yl)pyridin-2-yl)-1H-1,2,4-triazol-3-yl)-3-(6-azaspiro[2.5]octan-6-yl)phenyl)methanesulfonamide], the negative logarithm of the IC50 (pIC50) in assay [1] was 8.18. In assay [5], the “kon” value is 0.061 nM⁻¹ h⁻¹, the koff is 2.53e-05 s⁻¹, the pKi is 8.82 and the “disc. t1/2 (dissociation half-life ln(2)/koff)” value was found to be 7.6 h.
Consider `CS(=O)(=O)Nc1ccc(-n2cc(-c3cccc(S(=O)(=O)N4CC(F)(F)C4)c3)nn2)c(N2CCC3(CC2)CC3)c1` [Compound 13, N-(4-(4-(3-((3,3-difluoroazetidin-1-yl)sulfonyl)phenyl)-1H-1,2,3-triazol-1-yl)-3-(6-azaspiro[2.5]octan-6-yl)phenyl)methanesulfonamide], for which the pIC50 is 8.14 in assay [1]; 8.52 in assay [2] (168 h, HCC15, 7 days); 8.33 in assay [3] (setting [6]); 8.35 in assay [4] (setting [7]).
In the case of `CS(=O)(=O)Nc1ccc(-c2cn(-c3cccc(N4CCC(F)(F)CC4)n3)nn2)c(N2CCC3(CC2)CC3)c1` [Compound 29, N-(4-(1-(6-(4,4-difluoropiperidin-1-yl)pyridin-2-yl)-1H-1,2,3-triazol-4-yl)-3-(6-azaspiro[2.5]octan-6-yl)phenyl)methanesulfonamide], the pIC50 is 7.74 in assay [1]; 7.60 in assay [2] (168 h, HCC15, 7 days); 7.64 in assay [3] (setting [6]); 7.68 in assay [4] (setting [7]).
The corresponding values for `CCS(=O)(=O)Nc1ccc(-n2cc(-c3cccc(N4CC(F)(F)C4)n3)nn2)c(N2CCC3(CC2)CC3)c1` [Compound 61, N-(4-(4-(6-(3,3-difluoroazetidin-1-yl)pyridin-2-yl)-1H-1,2,3-triazol-1-yl)-3-(6-azaspiro[2.5]octan-6-yl)phenyl)ethanesulfonamide] are 8.10, 7.82, 7.82 and 7.80.
As for `O=S(=O)(Nc1ccc(-n2cc(-c3cccc(N4CCC(F)(F)CC4)n3)nn2)c(N2CCC3(CC2)CC3)c1)C1(CO)CC1` [Compound 62, N-(4-(4-(6-(4,4-difluoropiperidin-1-yl)pyridin-2-yl)-1H-1,2,3-triazol-1-yl)-3-(6-azaspiro[2.5]octan-6-yl)phenyl)-1-(hydroxymethyl)cyclopropane-1-sulfonamide], the pIC50 in assay [1] was 7.74; in assay [2] (168 h, HCC15, 7 days) it was 7.89; in assay [3] (setting [6]), 8.02; in assay [4] (setting [7]) it was 7.89.
With `CS(=O)(=O)Nc1ccc(-c2cn(-c3cccc(N4CCC(F)(F)CC4)c3)nn2)c(N2CCC3(CC2)CC3)c1` [Compound 64, N-(4-(1-(3-(4,4-difluoropiperidin-1-yl)phenyl)-1H-1,2,3-triazol-4-yl)-3-(6-azaspiro[2.5]octan-6-yl)phenyl)methanesulfonamide], the negative logarithm of the IC50 (pIC50) in assay [1] was 7.60; in assay [2] (168 h, HCC15, 7 days) it was 6.92; in assay [3] (setting [6]), 6.92; in assay [4] (setting [7]), 6.92.
`Cc1cc(-c2cn(-c3ccc(NS(=O)(=O)CCO)cc3N3CCCCC3)nn2)nc(N2CC(F)(F)C2)c1` [Compound 70, N-(4-(4-(6-(3,3-difluoroazetidin-1-yl)-4-methylpyridin-2-yl)-1H-1,2,3-triazol-1-yl)-3-(piperidin-1-yl)phenyl)-2-hydroxyethane-1-sulfonamide]: the pIC50 in assay [1] was 7.57. In assay [5], the “kon” value was 0.0090 nM⁻¹ h⁻¹, the koff is 3.61e-05 s⁻¹, the pKi was 7.82 and the “disc. t1/2 (dissociation half-life ln(2)/koff)” value is given as 5.4 h.
On to `O=S(=O)(CCO)Nc1ccc(-c2cn(-c3cccc(N4CCC(F)(F)CC4)n3)nn2)c(N2CCC3(CC2)CC3)c1` [Compound 71, N-(4-(1-(6-(4,4-difluoropiperidin-1-yl)pyridin-2-yl)-1H-1,2,3-triazol-4-yl)-3-(6-azaspiro[2.5]octan-6-yl)phenyl)-2-hydroxyethane-1-sulfonamide], for which the pIC50 in assay [1] was 8.00; in assay [2] (168 h, HCC15, 7 days), 7.92; in assay [3] (setting [6]) it was 7.70; in assay [4] (setting [7]), 7.89.
For `Cc1cc(-c2cn(-c3ccc(NS(=O)(=O)CCO)cc3N3CCC4(CC3)CC4)nn2)nc(N2CCC(F)(F)CC2)c1` [Compound 72, N-(4-(4-(6-(4,4-difluoropiperidin-1-yl)-4-methylpyridin-2-yl)-1H-1,2,3-triazol-1-yl)-3-(6-azaspiro[2.5]octan-6-yl)phenyl)-2-hydroxyethane-1-sulfonamide], the pIC50 was 7.80 in assay [2] (168 h, HCC15, 7 days); 7.62 in assay [3] (setting [6]); 7.60 in assay [4] (setting [7]).
Turning to `Cc1cc(-c2cn(-c3ccc(NS(=O)(=O)CCO)cc3N3CCC4(CC3)CC4)nn2)nc(N2CC3C(C2)C3(F)F)n1` (centres unmarked) [Compound 73, N-(4-(4-(2-(6,6-difluoro-3-azabicyclo[3.1.0]hexan-3-yl)-6-methylpyrimidin-4-yl)-1H-1,2,3-triazol-1-yl)-3-(6-azaspiro[2.5]octan-6-yl)phenyl)-2-hydroxyethane-1-sulfonamide], the pIC50 in assay [1] was 7.96; in assay [2] (168 h, HCC15, 7 days), 8.00; in assay [3] (setting [6]), 7.38; in assay [4] (setting [7]), 7.85.
The compound `O=S(=O)(CCO)Nc1ccc(-c2cn(-c3cnn(C4CCC(F)(F)CC4)c3)nn2)c(N2CCC3(CC2)CC3)c1` [Compound 166, N-(4-(1-(1-(4,4-difluorocyclohexyl)-1H-pyrazol-4-yl)-1H-1,2,3-triazol-4-yl)-3-(6-azaspiro[2.5]octan-6-yl)phenyl)-2-hydroxyethane-1-sulfonamide] gave a pIC50 in assay [1] of 5.55.
Same read-out and setting: under “N-(4-(4-(2-((3S,4R)-3,4-difluoropyrrolidin-1-yl)-6-methylpyrimidin-4-yl)-1H-1,2,3-triazol-1-yl)-3-(6-azaspiro[2.5]octan-6-yl)phenyl)-2-hydroxyethane-1-sulfonamide [Compound 107]” stands 7.80; under “N-(4-(4-(2-(cyclopentyloxy)-6-methylpyrimidin-4-yl)-1H-1,2,3-triazol-1-yl)-3-(6-azaspiro[2.5]octan-6-yl)phenyl)-2-hydroxyethane-1-sulfonamide [Compound 109]”, 8.06.

(Values after patent US20230382889A1 (Volastra Therapeutics, Inc., priority 2022, published 2023).)
